Data reported in patent US8247211B2, “Glycopeptide antibiotics” (American Cyanamid Company, priority 2001, dated 2012).
Converted amounts (≈) assume the structure as drawn.

What was measured:
Staphylococcus sp. = assay: In vitro antibacterial evaluation: minimum inhibitory concentration (MIC), broth dilution method; assay type: cell-based; conditions: 18 hours at 35° C.
Procedure, shortened: (§1)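 First, organisms are seeded at 5×10^5 CFU/mL into Muller-Hinton II […]. Next, antibiotic is applied across 64-0.06 μg/mL by broth dilution (NCCLS M7-A2). Finally, the lowest inhibitory concentration is recorded as MIC.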

Enterococcus sp. = assay: as above; assay type: cell-based; conditions: 18 hours at 35° C.
Procedure, shortened: as §1

Escherichia coli = assay: as above; assay type: cell-based; conditions: Escherichia coli (GC 4560); 18 hours at 35° C.
Procedure, shortened: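 Using Muller-Hinton II […] and an inoculum of 5×10^5 CFU/mL, antibiotic dilutions from 64 down to 0.06 μg/mL were tested following NCCLS M7-A2. The MIC is the lowest concentration inhibiting growth, including in methicillin-, penicillin- or vancomycin-resistant clinical isolates.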

Streptococcus sp. = assay: as above; assay type: cell-based; conditions: 18 hours at 35° C.
Procedure, shortened: as §1

[1] = system: Staphylococcus aureus-SMITH (GC 4543); assay: Acute lethal infection in mice (ED50); assay type: in vivo; conditions: female CD-1 mice, intraperitoneal challenge, intravenous dose 30 min. after infection, 7 day survival ratios
Procedure, shortened: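 IP bacterial challenge, female CD-1 mice; inoculum lethal to untreated controls in 24-48 hr. IV dosing in saline or 5% dextrose 30 min post-infection, 5 mice/dose. ED50 from 7-day survival, 3 tests pooled.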

[2] = broth dilution, inoculum 5×10^5 CFU/mL

**Q.** Which results are given for `CCCOc1ccc(COCC2OC(OC3C(CO)OC(Oc4ccc(CC5NC(=O)C(C(C)c6ccccc6)NC(=O)CNC(=O)C(CO)NC(=O)C(C(O)C6CNC(=N)N6C6OC(CO)C(O)C(O)C6O)NC(=O)C(C(O)C6CNC(=N)N6)NC5=O)cc4)C(O)C3O)C(O)C(O)C2O)cc1` (stereo not drawn) [Example 235, Cyclo[glycyl-β-methylphenylalanyl-O-[4-O-[6-O-(4-propoxybenzyl)hexopyranosyl]hexopyranosyl]tyrosyl-3-(2-iminoimidazolidin-4-yl)seryl-3-(3-hexopyranosyl-2-iminoimidazolidin-4-yl)serylseryl]]?
**A.** MIC Coagulase Negative Staphylococcus (GC 4547) (Staphylococcus sp.; Coagulase Negative Staphylococcus (GC 4547)): 0.5 to 1 µg/mL; MIC Coagulase Negative Staphylococcus (GC 4551) (Staphylococcus sp.; Coagulase Negative Staphylococcus (GC 4551)): 0.5 to 1 µg/mL; MIC Staphylococcus aureus (ATCC 29213) (Staphylococcus sp.; Staphylococcus aureus (ATCC 29213)): 0.5 to 1 µg/mL; MIC Staphylococcus aureus (GC 1131) (Staphylococcus sp.; Staphylococcus aureus (GC 1131)): 1 to 2 µg/mL; MIC Staphylococcus aureus (GC 3051) (Staphylococcus sp.; Staphylococcus aureus (GC 3051)): 0.5 to 2 µg/mL; MIC Staphylococcus aureus (GC 3053) (Staphylococcus sp.; Staphylococcus aureus (GC 3053)): 1 to 2 µg/mL; MIC Staphylococcus aureus (GC 4541) (Staphylococcus sp.; Staphylococcus aureus (GC 4541)): 0.5 to 1 µg/mL; MIC Staphylococcus aureus (GC 4542) (Staphylococcus sp.; Staphylococcus aureus (GC 4542)): 0.5 to 2 µg/mL; MIC Staphylococcus aureus (GC 4544) (Staphylococcus sp.; Staphylococcus aureus (GC 4544)): 1 to 2 µg/mL; MIC Staphylococcus aureus (GC 4545) (Staphylococcus sp.; Staphylococcus aureus (GC 4545)): 1 to 2 µg/mL; MIC Staphylococcus aureus-SMITH (GC 4543) (Staphylococcus sp.; Staphylococcus aureus-SMITH (GC 4543)): 0.5 to 1 µg/mL; MIC Enterococcus avium (GC 4558) (Enterococcus sp.; Enterococcus avium (GC 4558)): 4 µg/mL (≈ 2.77 µM); MIC Enterococcus faecalis (ATCC 29212) (Enterococcus sp.; Enterococcus faecalis (ATCC 29212)): 4 µg/mL (≈ 2.77 µM); MIC Enterococcus faecalis (GC 2242) (Enterococcus sp.; Enterococcus faecalis (GC 2242)): 4 µg/mL (≈ 2.77 µM); MIC Enterococcus faecalis (GC 2691) (Enterococcus sp.; Enterococcus faecalis (GC 2691)): 4 µg/mL (≈ 2.77 µM); MIC Enterococcus faecalis (GC 3059) (Enterococcus sp.; Enterococcus faecalis (GC 3059)): 4 to 8 µg/mL; MIC Enterococcus faecalis (GC 4552) (Enterococcus sp.; Enterococcus faecalis (GC 4552)): 4 µg/mL (≈ 2.77 µM); MIC Enterococcus faecalis (GC 4553) (Enterococcus sp.; Enterococcus faecalis (GC 4553)): 4 µg/mL (≈ 2.77 µM); MIC Enterococcus faecalis (GC 4554) (Enterococcus sp.; Enterococcus faecalis (GC 4554)): 4 to 8 µg/mL; MIC Enterococcus faecalis (GC 6189) (Enterococcus sp.; Enterococcus faecalis (GC 6189)): 4 µg/mL (≈ 2.77 µM); MIC Enterococcus faecium (GC 2243) (Enterococcus sp.; Enterococcus faecium (GC 2243)): 4 µg/mL (≈ 2.77 µM); MIC Enterococcus faecium (GC 4556) (Enterococcus sp.; Enterococcus faecium (GC 4556)): 4 µg/mL (≈ 2.77 µM); MIC Enterococcus faecium (GC 4557) (Enterococcus sp.; Enterococcus faecium (GC 4557)): 0.5 to 2 µg/mL; MIC Enterococcus faecalis (GC 2242) (Enterococcus sp.; [2]): 4 µg/mL (≈ 2.77 µM); MIC Enterococcus faecalis (GC 2691) (Enterococcus sp.; [2]): 4 µg/mL (≈ 2.77 µM); MIC Enterococcus faecalis (GC 3059) (Enterococcus sp.; [2]): 4 to 8 µg/mL; MIC Escherichia coli (GC 4560) (Escherichia coli): 0.5 to 1 µg/mL; MIC Streptococcus pneumoniae (ATCC 6301) (Streptococcus sp.; Streptococcus pneumoniae (ATCC 6301)): 0.12 µg/mL (≈ 0.0831 µM); MIC Streptococcus pneumoniae (GC 1894) (Streptococcus sp.; Streptococcus pneumoniae (GC 1894)): <0.06 µg/mL; MIC Streptococcus pyogenes (GC 4563) (Streptococcus sp.; Streptococcus pyogenes (GC 4563)): 0.25 µg/mL (≈ 0.173 µM); MIC Streptococcus pneumoniae (ATCC 6301) (Streptococcus sp.; [2]): 0.12 µg/mL (≈ 0.0831 µM); MIC Streptococcus pneumoniae (GC 1894) (Streptococcus sp.; [2]): <0.06 µg/mL; MIC Streptococcus pyogenes (GC 4563) (Streptococcus sp.; [2]): 0.25 µg/mL (≈ 0.173 µM); median effective dose (ED50), Staphylococcus aureus-SMITH (GC 4543) [1]: 0.59 mg/kg
